Source: US20120157401A1, “METHODS FOR TREATING NEUROFIBROMATOSIS” (PTC Therapeutics, Inc., priority 2009, published 2012)
Read-outs that look alike come from different tables or passages of the source. Marks after values point to notes of the source that are not given here.

Tests used:
[1] = tested on: tumor vessels (CD31 endothelial cells); test: Intratumoral microvessel density, anti-murine CD31 immunostain, HT1080 xenografts; format: in vivo, athymic nude mice; conditions: racemic mixture, 5 mg/kg of Compound #10 oral BID, 10 days
Protocol: Experimental Design. HT1080 cells (5×10^6 cells/mouse) were implanted subcutaneously in male athymic nude mice.
At the end of treatment, the mice were sacrificed. Excised tumors were assayed by ELISA for VEGF content as described in Section 9.1.1.1, and were sectioned and immunostained with an anti murine CD31 antibody that is specific for endothelial cells.

MDA-MB-468 xenografts = test: MDA-MB-468 estrogen-insensitive breast cancer xenograft: tumor growth; format: in vivo
Protocol: Tumor size was measured by calipers at periodic intervals. When the individual tumor size in a mouse exceeded 1500 mm^3, that mouse was sacrificed and both tumor and plasma were assayed for pathologic VEGF concentration as described in Section 9.1.1.1.

HT1080 cells = test: Reversibility of cell cycle delay after washout in HT1080 cells; format: cell-based, human; conditions: HT1080, 100 nM for 14 hours, then washout
[2] = In vitro plasma protein binding of 14C-radiolabeled Compound #10; format: in vitro ADME, mice, rats, dogs, monkeys, and humans; conditions: mouse, rat, dog, monkey, human, all species, 0.05 to 50 μg/mL, read-out: Plasma protein binding, overall mean
CYP1A2 = target: T1, CYP1A2 (Homo sapiens, UniProt P05177); test: CYP inhibition: CYP1A2; format: in vitro ADME; conditions: human hepatic microsomes or recombinant isoenzymes
T1 construct: host or cells: human hepatic microsomes or recombinant isoenzyme (not distinguished)
Text: It is possible that in certain clinical trial subjects, such agents may need to be adjusted for dosing or replaced by alternative agents that are not metabolized by CYP2D6, particularly when such agents may have a low therapeutic index.

[3] = Single-dose oral toxicity study in rats; format: in vivo
Protocol: A battery of genotoxicity studies was also performed. […] The L23 vehicle was used.
Because maximal exposure occurred at 100 mg/kg, this dose is considered the NOAEL for 1 day of dosing.

[4] = Phase 1 multiple-dose study in healthy volunteers: pharmacokinetics (Table 28); format: in vivo, human; conditions: for concentration at 24 h / Tmax: human, plasma, oral; for concentration at 24 h: read-out: C24 h
Protocol: Methods. The trial was a Phase 1, randomized, escalating multiple dose, single center study conducted in 2 stages.
Capsules contained 2 mg or 20 mg of active substance.
Capsules contained 20 mg or 25 mg of active substance.
Noncompartmental methods were used to compute Tmax, Cmax, and AUC. Dose proportionality and sex effect were evaluated using ANOVA on log transformed PK parameters using dose, sex, and dose by sex as fixed factors.

IL-6 = test: Patients: serum and plasma IL-6 levels; format: in vivo, human
Protocol: Subjects with NF2 may receive continuous daily treatment with a Compound administered at 100 mg per dose, 2 times a day (BID) for up to 1 year, or longer as appropriate, or until tumor progression. […] Tumor shrinkage or an improvement in hearing are indicators of efficacy.
Anti-angiogenic activity: Assessing VEGF concentrations provides a relevant and convenient mechanism-specific marker of Compound activity. […] For example, clinically validated ELISA kits (e.g., from R&D Systems, Minneapolis, Minn.) may be used to measure concentrations of VEGF, VEGF-C, P1GF, VEGFR, and inflammatory mediators such as IL-6 and IL-8. CT scan and MRI scan may also be used to assess peritumoral inflammation or edema.
Blood for VEGF, VEGFR, and Cytokines. Two blood samples (1 for plasma and 1 for serum) may be obtained for assessment of VEGF, VEGFR, and cytokine levels.
After processing, samples may be placed into a freezer at approximately −70° C. An ELISA-based multiplex system may be used to measure plasma VEGF and cytokine levels.

tumor perfusion = test: Patients: tumor perfusion by DCE-MRI; format: in vivo, human
Text: Tumor perfusion using DCE-MRI: Assessing tumor blood flow offers an additional parameter of a Compound's action that can confirm the downstream consequences of decreasing tumor VEGF. Measurement of blood flow in target lesions provides direct evidence of a Compound's action on tumors that can be correlated with plasma VEGF changes. Assessment of tumor perfusion using DCE-MRI may be used to evaluate the efficacy of a Compound using standard protocols (see., e.g., Morgan et al., J. Clin. Oncol., Nov. 1, 2003, 21(21):3955-64; Leach et al., Br. J. Cancer, May 9, 2005, 92(9):1599-610; Liu et al., J. Clin. Oncol., August 2005, 23(24): 5464-73; and Thomas et al., J. Clin. Oncol., Jun. 20, 2005, 23(18):4162-71).
Tumor Perfusion with DCE-MRI. Subjects may undergo DCE-MRI for the target lesion of interest during the screening period and between 1 to 8 hours after the AM dose at various times throughout the treatment protocol.

[5] = ECG and blood pressure assessments in 7-day and 28-day GLP toxicity studies
[6] = Stage 1, 0.3 mg/kg BID, Day 1, mean
[7] = Stage 1, 0.3 mg/kg BID, Day 7, mean
[8] = Stage 1, 0.6 mg/kg BID, Day 1, mean
[9] = Stage 1, 0.6 mg/kg BID, Day 7, mean
[10] = healthy volunteers, all dose levels

T1 sequence (P05177 whole entry): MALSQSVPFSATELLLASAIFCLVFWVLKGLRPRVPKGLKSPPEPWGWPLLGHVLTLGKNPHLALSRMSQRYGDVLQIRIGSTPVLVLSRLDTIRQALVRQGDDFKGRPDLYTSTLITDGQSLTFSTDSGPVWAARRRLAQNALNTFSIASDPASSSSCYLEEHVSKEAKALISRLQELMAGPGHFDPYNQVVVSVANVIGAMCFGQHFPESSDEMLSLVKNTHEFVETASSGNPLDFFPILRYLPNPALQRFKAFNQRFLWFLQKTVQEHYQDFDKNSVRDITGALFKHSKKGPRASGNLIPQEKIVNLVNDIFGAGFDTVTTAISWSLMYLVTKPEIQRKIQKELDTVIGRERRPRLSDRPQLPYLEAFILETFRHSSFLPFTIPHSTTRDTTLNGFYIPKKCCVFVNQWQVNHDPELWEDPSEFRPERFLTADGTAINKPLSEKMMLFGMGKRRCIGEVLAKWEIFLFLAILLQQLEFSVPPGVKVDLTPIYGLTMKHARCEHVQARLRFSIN

Structure (SMILES): COc1ccc(C2c3[nH]c4ccc(Cl)cc4c3CCN2C(=O)Oc2ccc(Cl)cc2)cc1 (racemic) [Compound #10]
- Total volume of tumor vessels and diameters of vessels [1]: visibly reduced
- Tumor vessel count [1]: unchanged
- Mean % Inhibition of Tumor Size vs Vehicle at Day 12 (MDA-MB-468 xenografts; 10 mg/kg oral QD): 65* %
- Median Time to Tumor Size ≧1000 mm^3 (MDA-MB-468 xenografts; 10 mg/kg oral QD): 25 days
- Toxicity on observing the animals (MDA-MB-468 xenografts; MDA-MB-468 xenograft mice, 10 mg/kg QD): no evidence of toxicity
- Time after washout by which cells had resumed normal cycling (HT1080 cells): ≤ 26 h
- fraction unbound [2]: ≤ 0.005
- Inhibition of CYP1A2 (CYP1A2): No meaningful inhibition
- Dose of maximal exposure ([3]; Sprague Dawley, rat, in vivo, po, 1 day): 100 mg/kg
- NOAEL at 1 day ([3]; Sprague Dawley, rat, in vivo, rats, single oral gavage, read-out: NOAEL for 1 day of dosing): 100 mg/kg
- Clinical or clinical pathological toxicities ([3]; rats, single oral 100, 200, or 400 mg/kg): no notable clinical or clinical pathological toxicities
- AUC0-24 [4, 6]: 4310 ng·h/mL
- Cmax (after PM dose) [4, 6]: 480 ng/mL
- Dose-normalized AUC0-24 [4, 6]: 7.2 µg·h/mL/mg/kg
- Dose-normalized Cmax [4, 6]: 0.79 µg/mL/mg/kg
- Tmax (after PM dose) [4, 6]: 3.16 h
- AUC0-24 [4, 7]: 8440 ng·h/mL
- Cmax (after PM dose) [4, 7]: 590 ng/mL
- Dose-normalized AUC0-24 [4, 7]: 14.1 µg·h/mL/mg/kg
- Dose-normalized Cmax [4, 7]: 0.99 µg/mL/mg/kg
- AUC0-24 [4, 8]: 10100 ng·h/mL
- Cmax (after PM dose) [4, 8]: 970 ng/mL
- Dose-normalized AUC0-24 [4, 8]: 8.4 µg·h/mL/mg/kg
- Dose-normalized Cmax [4, 8]: 0.81 µg/mL/mg/kg
- Tmax (after PM dose) [4, 8]: 3.17 h
- AUC0-24 [4, 9]: 18600 ng·h/mL
- Cmax (after PM dose) [4, 9]: 1160 ng/mL
- Dose-normalized AUC0-24 [4, 9]: 15.5 µg·h/mL/mg/kg
- Dose-normalized Cmax [4, 9]: 0.97 µg/mL/mg/kg
- Dose-normalized AUC0-24 ([4]; Stage 1, […] BID, Day 1, mean): 7.5 µg·h/mL/mg/kg
- Dose-normalized Cmax ([4]; Stage 1, […] BID, Day 1, mean): 0.82 µg/mL/mg/kg
- Cmax (after PM dose) ([4]; Stage 1, […] BID, Day 7, mean): 2470 ng/mL
- Dose-normalized AUC0-24 ([4]; Stage 1, […] BID, Day 7, mean): 13.7 µg·h/mL/mg/kg
- Dose-normalized Cmax ([4]; Stage 1, […] BID, Day 7, mean): 1.03 µg/mL/mg/kg
- Dose-normalized AUC0-24 ([4]; Stage 2, […] TID, Day 1, mean): 7.7 µg·h/mL/mg/kg
- Dose-normalized Cmax ([4]; Stage 2, […] TID, Day 1, mean): 0.51 µg/mL/mg/kg
- Tmax (after PM dose) ([4]; Stage 2, […] TID, Day 1, mean): 2.50 h
- Cmax (after PM dose) ([4]; Stage 2, […] TID, Day 7, mean): 4650 ng/mL
- Dose-normalized AUC0-24 ([4]; Stage 2, […] TID, Day 7, mean): 16.4 µg·h/mL/mg/kg
- Dose-normalized Cmax ([4]; Stage 2, […] TID, Day 7, mean): 0.98 µg/mL/mg/kg
- concentration at 24 h ([4]; both sexes, 0.3 mg/kg, Stage 1, 0.3 mg/kg BID, Day 1, mean): 94 ng/mL
- concentration at 24 h ([4]; both sexes, 0.3 mg/kg, Stage 1, 0.3 mg/kg BID, Day 7, mean): 210 ng/mL
- concentration at 24 h ([4]; both sexes, 0.6 mg/kg, Stage 1, 0.6 mg/kg BID, Day 1, mean): 260 ng/mL
- concentration at 24 h ([4]; both sexes, 0.6 mg/kg, Stage 1, 0.6 mg/kg BID, Day 7, mean): 540 ng/mL
- Tmax ([4]; both sexes, healthy volunteers, Stage 1 and Stage 2, read-out: Mean Tmax): ~3 h
- Tmax ([4]; both, Stage 1, 1.2 mg/kg BID, Day 1, mean, read-out: Tmax (after PM dose)): 3 h
- Oral bioavailability ([4]; healthy volunteers): orally bioavailable
- Differences in Cmax or AUC0-24 between males and females ([4]; healthy volunteers, ANOVA): no significant differences
- Accumulation (Day 1 to Day 7) when dosed continuously [4, 10]: ~2 fold
- Target trough plasma concentration (~0.1 to […]) [4, 10]: achieved and maintained
- Lag time until appearance in plasma ([4]; healthy volunteers, oral capsules): ~30 min
- Plasma IL-6 levels in patients (FIG. 38) (IL-6): reduced
- Tumor perfusion in patients by DCE-MRI (FIG. 36) (tumor perfusion): reduced
- QTc values vs controls ([5]; males, 60 mg/kg/day, 28-day study): comparable to controls
- Increase in mean uncorrected QT value vs controls ([5]; males, 60 mg/kg/day, end of 28-day dosing): 7%
- Toxicological effects on ECG or blood pressure ([5]; through 120 mg/kg/day for 7-days and through 60 mg/kg/day for 28-days): did not have any toxicological effects
